# Reference: patent US8129425B2, “Small organic molecule regulators of cell proliferation” (Curis, Inc., priority 2000, dated 2012)
# What was measured:
# Gli-1 = experiment: Quantitative RT-PCR (TaqMan) of Gli-1 transcript in C3H 10T1/2 cells; assay type: cell-based, Murine; details: compound concentration 8 μM
# Protocol: (§1) The compounds of FIGS. 32 and 33 were tested for their ability to activate transcription of two well-studied targets of the Hedgehog pathway: the transcription factor Gli-1, and the putative Hedgehog receptor component Ptc-1.
# (§2) Murine C3H 10T1/2 cells were seeded at approximately 200,000 cells per well in a 24-well plate in complete medium (10% FBS). After 24 hr, medium was removed and replaced with “starvation” medium (0.5% FBS) containing dilutions of compound or Hh protein. After 16-18 hr, total RNA was prepared using TriZol (Life Technologies, inc.).
# (§3) One-microgram aliquots of total RNA were used to prepare random hexamer-primed cDNA with […] Reverse transcriptase (Life Technologies, Inc.).
# (§4) To measure the relative levels of Gli-1 and Ptc-1 transcripts, TaqMan assays (PE Biosystems) were performed with an ABI Prism 7700 Sequence Detection System. As an internal control, GAPDH transcript levels were simultaneously measured in each reaction. Data were analyzed using Sequence Detector v 1.6.3 (Perkin Elmer).
# Ptc-1 = experiment: Quantitative RT-PCR (TaqMan) of Ptc-1 transcript in C3H 10T1/2 cells; assay type: cell-based, Murine; details: compound concentration 8 μM
# Protocol: as §1, §2, §3, §4
# [1] = tested on: cerebellar neuron precursors; experiment: Cerebellar neuron precursor proliferation (3H-thymidine incorporation); assay type: cell-based, rat; details: for stimulation of 3H-thymidine incorporation: absence of Hh protein treatment
# Protocol: In order to test the efficacy of Hedgehog signaling agonists, the ability of the agonists to stimulate the proliferation of cerebellar neuron precursors was determined. Cerebellar granule neuron precursors are known to respond to Hh protein by proliferating. To test the agonists, cerebellar neurons were dissected out of postnatal (one week) rat brains, and placed into primary cell culture. Treatment agents were added once, on the first day of culture (0 DIV). Cells were left in culture until 2 DIV, when 3H-thymidine was added for 5 hours; the amount of incorporation by the cells of this 3H-thymidine provides a measure of the level of proliferation of the cells. Cells were then lysed, and the incorporation of 3H-thymidine was determined. The positive control was Hh protein, at 1.0 μg/ml final concentration. Hh protein alone caused approximately a 20-fold increase in 3H-thymidine incorporation, consistent with the known ability of Shh to stimulate proliferation of these cells. Non-Hh-protein-stimulated cells, including cells treated with control vehicle (DMSO), had very low levels of proliferation. […] At 5.0 μM, the p-cyanophenyl compound B caused 10.2-fold induction of 3H-thymidine incorporation. […] At 1.0, 0.3, or 0.1 μM, D caused 16-, 17-, or 13-fold induction, respectively, of 3H thymidine incorporation into the cells.
# [2] = tested on: hedgehog-responsive Gli-Luc reporter-construct; experiment: Gli-Luc hedgehog pathway reporter assay in [10T1/2(s12)] cells; assay type: cell-based, murine; details: Table 1
# Protocol: To measure the hedgehog agonist activity of compounds, we used [10T1/2(s12)] cells containing the hedgehog-responsive Gli-Luc reporter-construct. In each MTP (MicroTiter Plate; 96-well plate), 10,000-20,000 cells were plated per well, in full media (10% FBS). After about 24-48 hr, plates were switched to low-serum media (=0.5%. FBS). Subsequently, a test compound was added at 1-5 μM in the presence or absence of octyl-hedgehog (see below). After another 24 hr, the media from the MTPs was discarded and replaced with luciferase assay-mix, containing lysis-buffer with luciferase substrate. The plates were incubated at RT for about 15-30 min and read in a luminometer.
# Plates were incubated for 48 hr before switching to low-serum. Compounds were screened at 1-2 μM in the presence of Hh protein (0.01 μg/ml; EC30=about 30% of max-induced activity).
# Plates were incubated for 24 hr before switching to low-serum. Compounds were screened at 5 μM without adding Hh protein.
# From Screen A, we identified hits identified in FIGS. 32 and 33. The 1,4-diaminocyclohexane subunit of the compounds of FIG. 32 which include this moiety have the two amino substituents disposed in a trans-relationship, e.g., both substituents equatorial on the cyclohexane subunit. These hits were confirmed in Screen B. The data shown in FIGS. 34a and 34b essentially involved dosing the two compounds in both assays (Gli-Luc & SV-Luc).
# The data from the Gli-Luc assay is converted to percent activity where full activity with Hh protein is set at 100% (FIG. 35; Table 1). […] Furthermore, the compounds show a more striking induction in the presence of hedgehog (EC50=0.2-0.3 μM, ECmax=70-90% of max induced activity with Hh protein), indicating a synergy between the compounds and Hh protein, consistent with the compounds serving as agonists for the hedgehog pathway.
# [3] = tested on: patched (ptc-lacZ β-galactosidase reporter); experiment: Ptc-lacZ reporter mice assay (X-gal staining of tissues); assay type: in vivo; details: agonist 15 mg/kg/injection 4X/day + dipal-Shh 1 mg/kg/injection 2X/day, four days from first day after birth
# Protocol: Mice with a β-galactosidase transgene (ptc-lacZ mice) under the regulatory control of the patched locus express the β-galactosidase protein in the same cells where the endogenous mouse patched gene is expressed. The β-galactosidase protein can thus be used as a faithful reporter of the expression of the endogenous patched gene.
# Ptc-lacZ mice were divided into four treatment groups and were treated with the following compounds or combinations of compounds for four days, beginning on the first day after birth (dipal-Shh=dipalmitoylated Sonic hedgehog):
# The vehicle for the agonist was 10% DMSO in PBS (pH 7.2). The agonist was injected from a 4.67 mM stock dissolved in the vehicle solution.
# 18 hours following the last injections, the mice were sacrificed and the following tissues were collected: skull, kidney, lung, scapula, skin and heart. All tissues were fixed in 0.2% glutaraldehyde, 5 mM EDTA (pH 8.0), 20 mM MgCl2, 100 mM Na2HPO4 for 30 minutes before staining in 1 mg/ml X-gal, 12.5 mM potassium ferrocyanide, 12.5 mM potassium ferricyanide, 2 mM MgCl2, 0.01% deoxycholate, 0.02% NP-40, and 100 mM Na2HPO4 for 30 hours. Tissues were judged for relative intensity and photographed.
# FIG. 42: Ptc-lacZ mice were divided into two treatment groups and were treated with the following compounds for three days, beginning on the first day after birth:
# The vehicle for the agonist was 10% DMSO in PBS (pH 7.2). The agonist was injected from a 1.0 mM stock dissolved in the vehicle solution.
# Eighteen hours following the last injections, the mice were sacrificed and the forelimbs were collected and processed as described above.
# In a third experiment, Ptc-lacZ mice were divided into five treatment groups and were treated with the following compounds for four days, beginning on the first day after birth:
# The vehicle for the agonist was 10% DMSO in PBS (pH 7.2). The agonist was injected from stocks of 0.3, 0.1 and 0.03 mM dissolved in the vehicle solution.
# ptc-1 (d11) lacZ lungs = experiment: Lung branching assay (ptc-1 lacZ lung explants); assay type: cell-based, mouse; details: 5 μM, 48 hrs
# Protocol: E12.5 old ptc-1 (d11) lacZ lungs were harvested and transgenic embryos identified by lacZ detection using tails. Explants were assembled on 1 μm polycarbonate filters (Costar) placed on top of plastic grids (histology embedding chamber) and placed in standard 12-well tissue culture plates filled with lung explant culture medium (DMEM based, additives optimized for the culture of mouse lungs) for 48 hrs, fixed in lacZ fixative, rinsed and stained for lacZ O/N at 37° C.
# [4] = tested on: ptc-1 (d11) lacZ kidney explants; experiment: Kidney branching assay (ptc-1 lacZ kidney explants); assay type: cell-based, mouse; details: 5 μM, 48 hrs
# Protocol: E13.5 old ptc-1 (d11) lacZ […] were harvested and transgenic embryos identified by lacZ detection using tails. Explants were assembled on 1 μm polycarbonate filters (Costar) placed on top of plastic grids (histology embedding chamber) and placed in standard 12-well tissue culture plates filled with kidney explant culture medium (DMEM based, additives optimized for the culture of mouse […]) for 48 hrs, fixed in lacZ fixative, rinsed and stained for lacZ O/N at 37° C.
# ptc-lacZ skin punches = experiment: Skin explants from ptc-lacZ pups (X-Gal stain); assay type: cell-based, mouse; details: cultured 6 days
# Protocol: Skin from ptc-lacZ E17.5 pups was excised with a 2 mm skin punch. Those skin punches were then cultured for 6 days in control media, or media including either agonist B or D or Hh protein, or media including both an agonist and Hh protein. The explants were then stained with X-Gal stain.
# [5] = tested on: HEPM cells with a Gli-Luc construct; experiment: Gli-Luc reporter in human embryonic palatal mesenchyme (HEPM) cells; assay type: cell-based
# Source text: FIGS. 47A and B compare the activity of subject compounds O and R in mouse reporter cells (TM3 cells with a Gli-Luc reporter construct, as described above) and in human reporter cells (human embryonic palatal mesenchyme (HEPM) cells with a Gli-Luc construct).
smiles,measurement,setting,value
COc1ccc(CN(C(=O)c2sc3ccccc3c2Cl)C2CCC(N)CC2)cc1-c1cccc([N+](=O)[O-])c1 (stereo not shown) [A],induction of Gli-1 relative to that obtained with the optimal concentration of Hh protein,Gli-1,~40%
same,induction of Ptc-1 relative to that obtained with the optimal concentration of Hh protein,Ptc-1,~40%
same,stimulation of 3H-thymidine incorporation,[1],significantly stimulate 3H-thymidine incorporation
COc1ccc(CN(C(=O)c2sc3ccccc3c2Cl)C2CCC(N)CC2)cc1-c1ccc(C#N)cc1 (stereo not shown) [B],EC50,[2],< 10 µM
same,induction of Gli-1 relative to that obtained with the optimal concentration of Hh protein,Gli-1,approximately 60%
same,induction of Ptc-1 relative to that obtained with the optimal concentration of Hh protein,Ptc-1,approximately 60%
same,induction of 3H-thymidine incorporation,"[1]; 5.0 μM, absence of Hh protein",10.2 fold
same,stimulation of 3H-thymidine incorporation,[1],significantly stimulate 3H-thymidine incorporation
same,upregulation of hedgehog pathway (β-galactosidase staining),[3],clearly capable of upregulating the hedgehog pathway in vivo
same,LacZ reporter gene expression in lung explants,ptc-1 (d11) lacZ lungs,significantly increased reporter gene expression and expansion of the expression domain of the transgene
same,LacZ reporter gene expression in kidney explants,[4],significantly increased reporter gene expression and expansion of the expression domain of the transgene
same,X-Gal staining of skin explants,ptc-lacZ skin punches; agonist alone,greater staining than culturing with a low dose of Hh protein alone
same,X-Gal staining of skin explants,ptc-lacZ skin punches; agonist and a low dose of Hh protein,staining similar to that of a substantially higher dose of Hh protein
CNC1CCC(N(Cc2ccc(-c3cccnc3)o2)C(=O)c2sc3ccccc3c2Cl)CC1 (stereo not shown) [R],EC50,[2],< 1 µM
same,activation of Gli-Luc reporter cell line,[5],activation of the reporter cell line
CN[C@H]1CC[C@H](N(Cc2cccc(N3CCC4(CC3)OCCO4)c2)C(=O)c2sc3ccccc3c2Cl)CC1 [Y′],EC50,[2],< 10 µM
CN[C@H]1CC[C@H](N(Cc2ccc(OC)c(-c3ccc(C#N)cc3)c2)C(=O)c2sc3cccc(F)c3c2Cl)CC1 [Y′′],EC50,[2],< 0.05 µM
COc1ccc(CN(C(=O)c2sc3ccccc3c2Cl)C2CCC(N)CC2)cc1-c1nccs1 (stereo not shown) [Z],EC50,[2],< 10 µM
CN[C@H]1CC[C@H](N(Cc2cccc(C#N)c2)C(=O)c2sc3ccccc3c2Cl)CC1 [Z′],EC50,[2],< 10 µM
